Measurements reported in patent US11584747B2, “Substituted pyridopyrimidinonyl compounds useful as T cell activators” (BRISTOL-MYERS SQUIBB COMPANY, priority 2019, dated 2023).
Read-outs that look alike come from different tables or passages of the source.

Assays:
human DGKα = human DGKα (Homo sapiens (Human), UniProt P23743); experiment: DGKα ADPGLO assay (detergent/lipid micelle substrate); format: biochemical
Protocol: DGK Alpha ADPGLO (Truncated) IC50 (uM)
The detergent/lipid micelle was prepared by combining 15 g phosphatidylserine (Avanti 840035P) and 1 g diacylglycerol (8008110) and dissolving into 150 mL chloroform in a 2 L round bottom flask. Chloroform was removed under high vacuum by rotary evaporation. […] The lipid/detergent solution was split into 5 mL aliquots and stored at −80° C.

human DGKζ = human DGKζ (Homo sapiens (Human), UniProt Q13574); experiment: DGKζ LIPGLO assay (extruded liposome substrate, ADP-Glo luminescence); format: biochemical
Sequence of human DGKζ (Q13574 other isoform, or with tags, fused parts or gaps): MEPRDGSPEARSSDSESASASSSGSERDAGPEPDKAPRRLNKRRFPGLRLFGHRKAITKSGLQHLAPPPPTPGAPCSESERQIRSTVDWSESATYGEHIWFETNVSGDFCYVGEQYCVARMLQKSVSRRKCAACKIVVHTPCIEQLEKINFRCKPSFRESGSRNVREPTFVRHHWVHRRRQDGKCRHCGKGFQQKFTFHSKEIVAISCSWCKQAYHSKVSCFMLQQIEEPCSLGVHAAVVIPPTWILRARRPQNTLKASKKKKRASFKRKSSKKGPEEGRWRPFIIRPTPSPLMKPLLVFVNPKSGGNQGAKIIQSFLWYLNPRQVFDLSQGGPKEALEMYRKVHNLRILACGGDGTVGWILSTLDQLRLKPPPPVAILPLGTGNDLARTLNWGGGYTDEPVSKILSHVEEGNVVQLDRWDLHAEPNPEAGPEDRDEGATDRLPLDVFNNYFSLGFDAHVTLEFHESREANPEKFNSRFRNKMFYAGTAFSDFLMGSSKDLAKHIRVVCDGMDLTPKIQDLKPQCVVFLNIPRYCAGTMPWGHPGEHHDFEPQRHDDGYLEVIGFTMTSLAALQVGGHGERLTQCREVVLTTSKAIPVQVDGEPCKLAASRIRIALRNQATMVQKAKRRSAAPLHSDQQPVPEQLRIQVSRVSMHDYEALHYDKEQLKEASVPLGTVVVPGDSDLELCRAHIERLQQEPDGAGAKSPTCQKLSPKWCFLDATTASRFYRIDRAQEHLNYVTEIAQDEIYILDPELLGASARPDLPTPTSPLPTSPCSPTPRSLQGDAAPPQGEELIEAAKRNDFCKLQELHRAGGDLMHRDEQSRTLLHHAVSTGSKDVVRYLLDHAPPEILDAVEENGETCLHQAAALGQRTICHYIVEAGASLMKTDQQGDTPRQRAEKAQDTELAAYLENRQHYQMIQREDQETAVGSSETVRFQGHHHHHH

[1] = system: human venous whole blood (IFN-γ); experiment: Human whole blood IFN-γ assay; format: cell-based
Protocol: Human venous whole blood (22.5 μL per well), obtained from healthy donors, was pre-treated with compounds for one hour at 37° C. in a humidified 95% air/5% CO2 incubator. The blood was stimulated with 2.5 μL anti-human CD3 and anti-CD28 mAb at a final concentration of 1 μg/mL each for 24 hours at 37° C. IFN-γ in the supernatants was measured using AlphLISA kit (Cat #AL217).

[2] = truncated DGK alpha, read-out: DGK alpha ADPGLO (Truncated) IC50
[3] = liposome assay, read-out: DGK zeta LIPGLO IC50
[4] = ADPGLO assay, read-out: DGK alpha ADPGLO IC50
[5] = liposome (LIPGLO) assay, read-out: DGK zeta (liposome assay) IC50
[6] = whole blood, normalized to 3 μM reference compound as 100% activation, read-out: IFN-γ Whole Blood Normalized EC50
[7] = Homo sapiens, whole blood, normalized to 3 μM reference compound as 100% activation, read-out: IFN-γ Whole Blood Normalized EC50
[8] = Homo sapiens, 24 h, human whole blood, anti-CD3 plus anti-CD28 stimulation, 24 hours, read-out: IFN-γ Whole Blood EC50

Sequence of human DGKα (P23743 whole entry, looked up, the tested form may be a part): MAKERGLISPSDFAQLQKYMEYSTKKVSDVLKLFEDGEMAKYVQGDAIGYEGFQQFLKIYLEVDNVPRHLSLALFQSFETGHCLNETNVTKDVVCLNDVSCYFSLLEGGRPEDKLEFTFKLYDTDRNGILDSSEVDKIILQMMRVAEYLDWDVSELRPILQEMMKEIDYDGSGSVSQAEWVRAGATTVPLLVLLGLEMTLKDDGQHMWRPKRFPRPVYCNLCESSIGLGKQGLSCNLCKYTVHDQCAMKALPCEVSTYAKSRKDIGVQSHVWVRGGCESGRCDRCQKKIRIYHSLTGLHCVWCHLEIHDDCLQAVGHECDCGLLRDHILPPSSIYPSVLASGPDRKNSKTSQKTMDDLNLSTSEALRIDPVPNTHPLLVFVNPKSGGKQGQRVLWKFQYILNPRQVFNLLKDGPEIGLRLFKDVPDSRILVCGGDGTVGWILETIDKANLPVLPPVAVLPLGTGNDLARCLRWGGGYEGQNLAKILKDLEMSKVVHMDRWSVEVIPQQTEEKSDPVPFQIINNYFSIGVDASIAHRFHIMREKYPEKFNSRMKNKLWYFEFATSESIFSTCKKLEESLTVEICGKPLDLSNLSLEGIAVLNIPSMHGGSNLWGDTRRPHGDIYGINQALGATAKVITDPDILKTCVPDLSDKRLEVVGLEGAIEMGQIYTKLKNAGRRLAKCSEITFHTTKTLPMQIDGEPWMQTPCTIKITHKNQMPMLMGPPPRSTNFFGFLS

SMILES: CC[C@H]1CN(C(C)c2ccc(CN3CCC(F)(F)CC3)cc2)[C@H](CC)CN1c1nc(=O)n(C)c2ccc(C#N)nc12 (stereo partly drawn) [Example 277, 4-((2S,5R)-4-(1-(4-((4,4-difluoropiperidin-1-yl)methyl)phenyl)ethyl)-2,5-diethylpiperazin-1-yl)-1-methyl-2-oxo-1,2-dihydropyrido[3,2-d]pyrimidine-6-carbonitrile]
- IC50 (human DGKα; [2]): 160 nM
- IC50 (human DGKζ; [3]): 18 nM

SMILES: COC[C@H]1CN(C(C)c2ccc(C(F)(F)F)cc2)[C@H](C)CN1c1nc(=O)n(C)c2ccc(C#N)nc12 (single isomer, unassigned) [Example 410]
- IC50 (human DGKα; [4]): 220 nM
- IC50 (human DGKζ; [5]): 2370 nM

SMILES: CC[C@H]1CN(C(C)c2ccc(C3(C#N)CC3)cc2)[C@H](CC)CN1c1nc(=O)n(C)c2ccc(C#N)nc12 (stereo partly drawn) [Example 263, 4-((2S,5R)-4-(1-(4-(1-cyanocyclopropyl)phenyl)ethyl)-2,5-diethylpiperazin-1-yl)-1-methyl-2-oxo-1,2-dihydropyrido[3,2-d]pyrimidine-6-carbonitrile]
- IC50 (human DGKα; [2]): 290 nM
- IC50 (human DGKζ; [3]): 62 nM

SMILES: CCC(c1ccc(C2OCCO2)cc1)N1C[C@H](C)N(c2nc(=O)n(C)c3ccc(C#N)nc23)C[C@H]1CC (stereo partly drawn) [Example 332, 4-((2S,5R)-4-(1-(4-(1,3-dioxolan-2-yl)phenyl)propyl)-5-ethyl-2-methylpiperazin-1-yl)-1-methyl-2-oxo-1,2-dihydropyrido[3,2-d]pyrimidine-6-carbonitrile]
- IC50 (human DGKα; [4]): 74 nM
- IC50 (human DGKζ; [5]): 720 nM

SMILES: CCC(C1CC(F)(F)C1)N1C[C@H](C)N(c2nc(=O)n(C)c3ccc(C#N)nc23)C[C@H]1C (stereo partly drawn) [Example 457, 4-((2S,5R)-4-(1-(3,3-difluorocyclobutyl)propyl)-2,5-dimethylpiperazin-1-yl)-1-methyl-2-oxo-1,2-dihydropyrido[3,2-d]pyrimidine-6-carbonitrile]
- IC50 (human DGKα; [4]): 4010 nM
- IC50 (human DGKζ; [5]): 1050 nM

SMILES: CCC(c1ccc(C2CC2)cc1F)N1C[C@H](C)N(c2nc(=O)n(C)c3ccc(C#N)nc23)C[C@H]1C (stereo partly drawn) [Example 380, 4-((2S,5R)-4-(1-(4-cyclopropyl-2-fluorophenyl)propyl)-2,5-dimethylpiperazin-1-yl)-1-methyl-2-oxo-1,2-dihydropyrido[3,2-d]pyrimidine-6-carbonitrile]
- IC50 (human DGKα; [4]): 29 nM
- IC50 (human DGKζ; [5]): 180 nM

SMILES: CCC(c1ccc(C(F)(F)F)cc1)N1C[C@H](CC)N(c2nc(=O)n(C)c3ccc(C#N)nc23)C[C@H]1CC (single isomer, unassigned) [Example 5]
- IC50 (human DGKα; [2]): 64 nM

SMILES: CCC(C1CCC(F)(F)CC1)N1C[C@H](C)N(c2nc(=O)n(C)c3ccc(C#N)nc23)C[C@H]1C (stereo partly drawn) [Example 459, 4-((2S,5R)-4-(1-(4,4-difluorocyclohexyl)propyl)-2,5-dimethylpiperazin-1-yl)-1-methyl-2-oxo-1,2-dihydropyrido[3,2-d]pyrimidine-6-carbonitrile]
- IC50 (human DGKα; [4]): 29800 nM
- IC50 (human DGKζ; [5]): 23900 nM

SMILES: CC[C@@H]1CN(c2nc(=O)n(C)c3ccc(C#N)nc23)[C@@H](C)CN1C(c1nc(C2CC2)no1)C(C)C (stereo partly drawn) [Example 366, 4-((2S,5R)-4-(1-(3-cyclopropyl-1,2,4-oxadiazol-5-yl)-2-methylpropyl)-5-ethyl-2-methylpiperazin-1-yl)-1-methyl-2-oxo-1,2-dihydropyrido[3,2-d]pyrimidine-6-carbonitrile]
- IC50 (human DGKα; [4]): 1450 nM
- IC50 (human DGKζ; [5]): 620 nM

SMILES: CC[C@H]1CN(C(C)c2ccc(C3(C)CC3)cc2)[C@H](CC)CN1c1nc(=O)n(C)c2ccc(C#N)nc12 (stereo partly drawn) [Example 218, 4-((2S,5R)-2,5-diethyl-4-(1-(4-(1-methylcyclopropyl)phenyl)ethyl)piperazin-1-yl)-1-methyl-2-oxo-1,2-dihydropyrido[3,2-d]pyrimidine-6-carbonitrile]
- IC50 (human DGKα; [2]): 78 nM
- IC50 (human DGKζ; [3]): 18 nM

SMILES: CCC(c1ccc(Br)cc1)N1C[C@H](C)N(c2nc(=O)n(C)c3ccc(C#N)nc23)C[C@H]1CC (stereo partly drawn) [Example 321, 4-((2 S,5R)-4-(1-(4-bromophenyl)propyl)-5-ethyl-2-methylpiperazin-1-yl)-1-methyl-2-oxo-1,2-dihydropyrido[3,2-d]pyrimidine-6-carbonitrile]
- IC50 (human DGKα; [4]): 10 nM
- IC50 (human DGKζ; [5]): 38 nM

SMILES: CC[C@H]1CN(C(C)c2ccc(CN3CCCCC3)cc2)[C@H](CC)CN1c1nc(=O)n(C)c2ccc(C#N)nc12 (stereo partly drawn) [Example 281, 4-((2S,5R)-2,5-diethyl-4-(1-(4-(piperidin-1-ylmethyl)phenyl)ethyl)piperazin-1-yl)-1-methyl-2-oxo-1,2-dihydropyrido[3,2-d]pyrimidine-6-carbonitrile]
- IC50 (human DGKα; [2]): 7170 nM
- IC50 (human DGKζ; [3]): 43600 nM

SMILES: CC[C@@H]1CN(c2nc(=O)n(C)c3ccc(C#N)nc23)[C@@H](CC)CN1CC1CCC(F)(F)CC1 [Example 269, 4-((2S,5R)-4-((4,4-difluorocyclohexyl)methyl)-2,5-diethylpiperazin-1-yl)-1-methyl-2-oxo-1,2-dihydropyrido[3,2-d]pyrimidine-6-carbonitrile]
- IC50 (human DGKα; [2]): 580 nM
- IC50 (human DGKζ; [3]): 260 nM

SMILES: CCC(c1ccc(Br)cc1)N1C[C@H](C)N(c2nc(=O)n(C)c3ccc(C#N)nc23)C[C@H]1CC (stereo partly drawn) [Example 322, 4-((2 S,5R)-4-(1-(4-bromophenyl)propyl)-5-ethyl-2-methylpiperazin-1-yl)-1-methyl-2-oxo-1,2-dihydropyrido[3,2-d]pyrimidine-6-carbonitrile]
- IC50 (human DGKα; [4]): 7 nM
- IC50 (human DGKζ; [5]): 760 nM

SMILES: CC[C@H]1CN(C(C)c2ccc(OC(F)(F)F)cc2F)[C@H](CC)CN1c1nc(=O)n(C)c2ccc(C#N)nc12 (single isomer, unassigned) [Example 39]
- EC50 [1, 6]: 2730 nM
- IC50 (human DGKζ; [3]): 770 nM

SMILES: CCOC(=O)[C@H]1C[C@@H]1Oc1ccc(C(C)N2C[C@H](CC)N(c3nc(=O)n(C)c4ccc(C#N)nc34)C[C@H]2CC)cc1 (stereo partly drawn) [Example 260, ethyl (1S,2S)-2-(4-(1-((2R,5S)-4-(6-cyano-1-methyl-2-oxo-1,2-dihydropyrido[3,2-d]pyrimidin-4-yl)-2,5-diethylpiperazin-1-yl)ethyl)phenoxy)cyclopropane-1-carboxylate]
- IC50 (human DGKζ; [3]): 3030 nM

SMILES: CC[C@@H]1CN(c2nc(=O)n(C)c3ccc(C#N)nc23)[C@@H](C)CN1C(C)c1ccc(C(F)(F)F)cc1 (single isomer, unassigned) [Example 7]
- IC50 (human DGKα; [2]): 180 nM

SMILES: CC[C@H]1CN(C(C)c2ccc(N3CCCC3=O)cc2)[C@H](CC)CN1c1nc(=O)n(C)c2ccc(C#N)nc12 (stereo partly drawn) [Example 231, 4-((2S,5R)-2,5-diethyl-4-(1-(4-(2-oxopyrrolidin-1-yl)phenyl)ethyl)piperazin-1-yl)-1-methyl-2-oxo-1,2-dihydropyrido[3,2-d]pyrimidine-6-carbonitrile]
- EC50 [1, 6]: 9740 nM

SMILES: CCC[C@@H]1CN(c2nc(=O)n(C)c3ccc(C#N)nc23)[C@@H](C)CN1C(C)c1ccc(C(F)(F)F)cc1 (single isomer, unassigned) [Example 396]
- IC50 (human DGKα; [4]): 920 nM

SMILES: C[C@@H]1CN(c2nc(=O)n(C)c3ccc(C#N)nc23)[C@@H](C)CN1C(c1ccc(F)cc1)c1ccc(C(F)(F)F)cn1 (stereo in doubt) [Example 126]
- EC50 [1, 7]: 680 nM

SMILES: CC[C@@H]1CN(c2nc(=O)n(C)c3ccc(C#N)nc23)[C@@H](C)CN1Cc1ccc2c(c1)OC(F)(F)O2 [Example 55, 4-((2S,5R)-((2,2-difluorobenzo[d][1,3]dioxol-5-yl)methyl)-5-ethyl-2-methylpiperazin-1-yl)-1-methyl-2-oxo-1,2-dihydropyrido[3,2-d]pyrimidine-6-carbonitrile]
- EC50 [1, 7]: 790 nM

SMILES: CCCC(c1ccc(C(F)(F)F)cc1)N1C[C@H](CC)N(c2nc(=O)n(C)c3ccc(C#N)nc23)C[C@H]1CC (stereo partly drawn) [Example 244, 4-((2S,5R)-2,5-Diethyl-4-(1-(4-(trifluoromethyl)phenyl)butyl)piperazin-1-yl)-1-methyl-2-oxo-1,2-dihydropyrido[3,2-d]pyrimidine-6-carbonitrile]
- EC50 [1, 6]: 13300 nM

SMILES: CCOc1ccc2c(n1)c(N1C[C@@H](CC)N(C(C)c3ccc(C(F)(F)F)cc3)C[C@@H]1CC)nc(=O)n2C (stereo partly drawn) [Example 429, 4-((2S,5R)-2,5-diethyl-4-(1-(4-(trifluoromethyl)phenyl)ethyl)piperazin-1-yl)-6-ethoxy-1-methylpyrido[3,2-d]pyrimidin-2(1H)-one]
- EC50 [1, 8]: 20000 nM
- IC50 (human DGKζ; [5]): 99500 nM

SMILES: CC[C@H]1CN(C(C)c2ccc(C(F)(F)F)cc2)[C@H](CC)CN1c1nc(=O)n(C)c2ccc(OC)nc12 (single isomer, unassigned) [Example 428]
- EC50 [1, 8]: 20000 nM
- IC50 (human DGKζ; [5]): 125000 nM

SMILES: CC[C@@H]1CN(c2nc(=O)n(C)c3ccc(C#N)nc23)[C@@H](C)CN1C(c1ccc(F)cc1)c1cc(C2CC2)on1 (single isomer, unassigned) [Example 102]
- IC50 (human DGKζ; [3]): 94 nM

SMILES: CC[C@H]1CN(C(C)c2ccc(C(F)(F)F)cc2)[C@H](CC)CN1c1nc(=O)n(C)c2ccc(OCCN(C)C)nc12 (stereo partly drawn) [Example 432, 4-((2S,5R)-2,5-diethyl-4-(1-(4-(trifluoromethyl)phenyl)ethyl)piperazin-1-yl)-6-(2-(dimethylamino)ethoxy)-1-methylpyrido[3,2-d]pyrimidin-2(1H)-one]
- EC50 ([1]; human whole blood, anti-CD3 plus anti-CD28 stimulation, 24 hours, read-out: IFN-γ Whole Blood EC50): 20000 nM
- IC50 (human DGKζ; [5]): 41700 nM
